In ChEMBL document CHEMBL1145356, “Discovery of new C3aR ligands. Part 1: arginine derivatives” (Bioorg Med Chem Lett, 2007):

Tests used:
[1] = molecular target: T1, C3a anaphylatoxin chemotactic receptor (Homo sapiens, UniProt Q16581); test: Inhibition of human C3a receptor expressed on HMC1 cells by SPA assay; type: cell-based
T1 sequence (Q16581 whole entry): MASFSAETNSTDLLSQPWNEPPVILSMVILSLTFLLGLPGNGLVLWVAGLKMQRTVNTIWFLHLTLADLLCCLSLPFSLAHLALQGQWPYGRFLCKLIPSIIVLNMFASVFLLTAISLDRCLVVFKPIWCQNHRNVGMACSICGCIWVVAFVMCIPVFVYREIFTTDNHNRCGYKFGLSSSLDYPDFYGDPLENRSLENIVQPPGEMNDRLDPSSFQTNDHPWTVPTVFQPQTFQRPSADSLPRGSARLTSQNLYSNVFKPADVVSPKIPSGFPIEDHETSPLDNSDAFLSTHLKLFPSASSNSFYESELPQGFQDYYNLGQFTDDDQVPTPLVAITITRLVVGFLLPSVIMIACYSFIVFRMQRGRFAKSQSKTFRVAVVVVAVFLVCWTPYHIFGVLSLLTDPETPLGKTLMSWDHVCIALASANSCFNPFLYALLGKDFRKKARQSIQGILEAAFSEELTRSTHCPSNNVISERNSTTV

[2] = molecular target: T1, C3a anaphylatoxin chemotactic receptor; test: Antagonist activity at C3aR; type: functional
[3] = molecular target: T1, C3a anaphylatoxin chemotactic receptor; test: Agonist activity at C3a receptor expressed on HMC1 cells; type: functional, cell-based
[4] = Peak plasma concentration in ovalbumin-induced BALB/c mouse model of airway inflammation at 3 mg/ml aerosol after 30 mins; type: ADME, organism-based; conditions: inhaled or intranasal
[5] = Metabolic clearance in rat liver microsomes; type: ADME, Microsome
[6] = Metabolic clearance in rat hepatocytes assessed per 10^6 cells; type: ADME, cell-based, Liver, Hepatocyte
CYP2D6 = CYP2D6 (Homo sapiens, UniProt P10635); test: Inhibition of CYP2D6 at 50 uM; type: ADME
Chain of CYP2D6 (P10635 whole entry): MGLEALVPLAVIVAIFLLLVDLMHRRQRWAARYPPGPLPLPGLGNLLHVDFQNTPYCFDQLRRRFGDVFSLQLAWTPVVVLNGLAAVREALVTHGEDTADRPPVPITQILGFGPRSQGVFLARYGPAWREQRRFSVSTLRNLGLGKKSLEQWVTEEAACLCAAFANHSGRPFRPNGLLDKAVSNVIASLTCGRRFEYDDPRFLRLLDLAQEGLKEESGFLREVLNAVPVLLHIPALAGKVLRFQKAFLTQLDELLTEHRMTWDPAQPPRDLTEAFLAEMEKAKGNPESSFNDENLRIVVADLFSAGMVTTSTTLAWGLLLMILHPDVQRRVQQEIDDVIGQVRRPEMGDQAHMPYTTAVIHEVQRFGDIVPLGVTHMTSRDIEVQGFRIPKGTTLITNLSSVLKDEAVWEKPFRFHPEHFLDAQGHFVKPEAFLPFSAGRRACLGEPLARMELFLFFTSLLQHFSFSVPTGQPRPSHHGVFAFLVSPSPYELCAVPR

CYP3A4 = CYP3A4 (Homo sapiens, UniProt P08684); test: Inhibition of CYP3A4 at 50 uM; type: ADME
Chain of CYP3A4 (P08684 whole entry): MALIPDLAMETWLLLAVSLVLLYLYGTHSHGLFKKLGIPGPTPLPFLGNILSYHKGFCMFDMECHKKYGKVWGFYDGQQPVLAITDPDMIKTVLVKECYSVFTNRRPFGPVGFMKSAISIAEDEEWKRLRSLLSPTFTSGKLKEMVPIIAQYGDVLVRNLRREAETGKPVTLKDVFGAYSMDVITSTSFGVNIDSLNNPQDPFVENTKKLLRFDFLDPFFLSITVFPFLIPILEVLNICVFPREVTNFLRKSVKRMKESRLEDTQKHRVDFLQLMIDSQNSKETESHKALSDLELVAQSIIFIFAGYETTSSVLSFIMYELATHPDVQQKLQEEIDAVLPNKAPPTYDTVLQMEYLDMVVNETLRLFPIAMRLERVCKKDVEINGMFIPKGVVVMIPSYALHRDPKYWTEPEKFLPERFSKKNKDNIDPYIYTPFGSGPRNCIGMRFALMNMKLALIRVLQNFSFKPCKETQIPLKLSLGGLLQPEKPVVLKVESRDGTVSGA

[7] = Permeability from apical to basolateral side in Caco-2 cells; type: ADME, cell-based; conditions: human, read-out: permeability
[8] = Bioavailability in rats at 1 mg/kg, po; type: ADME, organism-based; conditions: rat, in vivo
[9] = Bioavailability in rats at 1 mg/kg, […]; type: ADME, organism-based; conditions: rat, in vivo
[10] = Peak plasma concentration in ovalbumin-induced BALB/c mouse model of airway inflammation at 30 mg/kg, ip after 30 mins; type: ADME, organism-based; parameters: dose 30 mg/kg, route intraperitoneal

SMILES | IC50 [1] | also measured
N=C(N)NCCC[C@@H](NC(=O)c1ccc(C(c2cccc(F)c2)c2cccc(F)c2)o1)C(=O)O | 31.6 nM | EC50 [2]: 1260 nM
N=C(N)NCCC[C@@H](NC(=O)c1ccc(C(c2cccc(Cl)c2)c2cccc(Cl)c2)o1)C(=O)O | 15.8 nM | EC50 [3]: 20 nM
N#Cc1cccc(-c2ccc(C(=O)N[C@H](CCCNC(=N)N)C(=O)O)o2)c1 | 200 nM | 
N=C(N)NCCC[C@H](NC(=O)c1ccc(C(c2ccccc2)c2ccccc2)o1)C(=O)O |  | Cmax [4]: 27 ng/mL; microsomal CLint [5]: 4 µL/min/mg; hepatocyte CLint [6]: 5 µL/min/1e6 cells; inhibition at 50 µM (CYP2D6): 12%; inhibition at 50 µM (CYP3A4): 0%; Papp A→B [7]: 0.4 ×10⁻⁶ cm/s; bioavailability [8]: < 1%; bioavailability [9]: < 1%; Cmax [10]: 33800 ng/mL
N=C(N)NCCC[C@@H](NC(=O)c1ccc(-c2csc3ccccc23)o1)C(=O)O | 316 nM | 
NC(N)=NCCC[C@@H](NC(=O)c1ccc(-c2cccc3c2oc2ccccc23)o1)C(=O)O | 3980 nM | 
NC(N)=NCCC[C@@H](NC(=O)c1cccc(-c2cccc(Cl)c2)c1)C(=O)O | 794 nM | EC50 [2]: 3980 nM
NC(N)=NCCC[C@@H](NC(=O)c1ccc(C(c2ccc(Cl)cc2)c2ccc(Cl)cc2)o1)C(=O)O | 158 nM | EC50 [3]: 126 nM
N=C(N)NCCC[C@@H](NC(=O)c1ccc(C(c2ccccc2)c2ccccc2)cc1)C(=O)O | 794 nM | 
N=C(N)NCCC[C@@H](NC(=O)c1ccc(-c2cccc(Cl)c2)o1)C(=O)O | 79.4 nM | EC50 [3]: 501 nM
N=C(N)NCCC[C@@H](NC(=O)c1ccc(-c2cccc(Cl)c2)s1)C(=O)O | 6310 nM | EC50 [2]: 15800 nM
Cc1cccc(-c2ccc(C(=O)N[C@H](CCCNC(=N)N)C(=O)O)o2)c1 | 126 nM | 
N=C(N)NCCC[C@H](NC(=O)COCC(c1ccccc1)c1ccccc1)C(=O)O | 501 nM | 
Cc1ccc(Cl)cc1-c1ccc(C(=O)N[C@H](CCCN=C(N)N)C(=O)O)o1 | 794 nM | 
N=C(N)NCCC[C@@H](NC(=O)c1ccc(-c2cc(Cl)ccc2Cl)o1)C(=O)O | 1580 nM | 
NC(N)=NCCC[C@@H](NC(=O)N1CCN(C(c2ccccc2)c2ccccc2)CC1)C(=O)O | 50100 nM | 
COc1cccc(-c2ccc(C(=O)N[C@H](CCCN=C(N)N)C(=O)O)o2)c1 | 316 nM | 
N=C(N)NCCC[C@@H](NC(=O)c1ccc(-c2cccc(F)c2)o1)C(=O)O | 316 nM | 
NC(N)=NCCC[C@@H](NC(=O)c1ccc(-c2ccc(F)c(Cl)c2)o1)C(=O)O | 200 nM | 
N=C(N)NCCC[C@@H](NC(=O)c1ccc(-c2cccc(CO)c2)o1)C(=O)O | 794 nM | 
N=C(N)NCCC[C@@H](NC(=O)c1ccc(-c2cccc(Cl)c2)cc1)C(=O)O | 100000 nM | 
CCOc1cccc(-c2ccc(C(=O)N[C@H](CCCN=C(N)N)C(=O)O)o2)c1 | 200 nM | 
